The text below walks through data of publication PMC11539244, “Relative inhibitory activities of newly developed diazabicyclooctanes, boronic acid derivatives, and penicillin-based sulfone β-lactamase inhibitors against broad-spectrum AmpC β-lactamases” (Antimicrobial Agents and Chemotherapy, 2024).

One assay concerns the target T1, PDC-1 (Pseudomonas aeruginosa, UniProt P24735).
T1 construct: made in house; host or cells: E. coli TOP10, plasmid pUCp24
As to the kind of experiment: biochemical. Also on record: species or system P. aeruginosa.

The target in another assay is MIR-17. As to the kind of experiment: IC50 of β-lactamase inhibitors, crude extract, MIR-17. Type of assay: biochemical, Enterobacter roggenkampii. Conditions: crude extract of E. coli TOP10 recombinant strain, mean of triplicate.
Assay [1] has as its system E. coli TOP10. Also on record: method as in PMID 38727224. Conditions: inhibitor alone, previous study; cited from earlier work.
Another assay addresses ACT-17 (Enterobacter asburiae, UniProt P05364). The class given is biochemical. Conditions: crude extract of E. coli TOP10 recombinant strain, mean of triplicate.
The next assay has as its target SRT-1 (Serratia marcescens, UniProt P18539). As to the kind of experiment: IC50 of β-lactamase inhibitors, crude extract, SRT-1. Type of assay: biochemical. Conditions: crude extract of E. coli TOP10 recombinant strain, mean of triplicate.
Another assay addresses T2, PDC-5 (Pseudomonas aeruginosa, UniProt P24735, R79Q/T105A).
T2 construct: made in house; host or cells: E. coli TOP10, plasmid pUCp24
Description: biochemical. Also noted: species or system P. aeruginosa.

The next assay has as its target DHA-1 (Morganella morganii, UniProt P94958). As to the kind of experiment: IC50 of β-lactamase inhibitors, crude extract, DHA-1. The class given is biochemical.
For a further assay, the target named is ACT-7 (Enterobacter asburiae, UniProt B6V6L3). Description: biochemical.
Sequence of ACT-7 (B6V6L3 entry or part of it): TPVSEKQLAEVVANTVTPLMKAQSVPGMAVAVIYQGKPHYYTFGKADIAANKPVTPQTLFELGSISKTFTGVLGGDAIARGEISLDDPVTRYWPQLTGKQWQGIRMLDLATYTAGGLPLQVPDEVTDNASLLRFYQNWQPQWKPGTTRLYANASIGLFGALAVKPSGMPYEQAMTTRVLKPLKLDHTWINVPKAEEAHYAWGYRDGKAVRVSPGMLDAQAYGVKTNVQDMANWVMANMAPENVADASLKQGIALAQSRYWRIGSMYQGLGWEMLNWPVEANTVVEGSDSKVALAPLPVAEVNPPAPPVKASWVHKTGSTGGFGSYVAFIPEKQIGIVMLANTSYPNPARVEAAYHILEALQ
A further assay addresses T3, CMY-42 (Klebsiella pneumoniae, UniProt Q48434, V231S).
T3 construct: made in house; host or cells: E. coli TOP10, plasmid pUCp24
As to the kind of experiment: biochemical. Also on record: species or system Citrobacter spp.

The next assay concerns the target T4, CMY-2 (Klebsiella pneumoniae, UniProt Q48434).
T4 construct: made in house; host or cells: E. coli TOP10, plasmid pUCp24
As to the kind of experiment: biochemical. Also noted: species or system Citrobacter spp.

The target of the next assay is LAT-1 (Citrobacter portucalensis, UniProt Q48443). Description: biochemical.
Sequence of LAT-1 (Q48443 entry or part of it): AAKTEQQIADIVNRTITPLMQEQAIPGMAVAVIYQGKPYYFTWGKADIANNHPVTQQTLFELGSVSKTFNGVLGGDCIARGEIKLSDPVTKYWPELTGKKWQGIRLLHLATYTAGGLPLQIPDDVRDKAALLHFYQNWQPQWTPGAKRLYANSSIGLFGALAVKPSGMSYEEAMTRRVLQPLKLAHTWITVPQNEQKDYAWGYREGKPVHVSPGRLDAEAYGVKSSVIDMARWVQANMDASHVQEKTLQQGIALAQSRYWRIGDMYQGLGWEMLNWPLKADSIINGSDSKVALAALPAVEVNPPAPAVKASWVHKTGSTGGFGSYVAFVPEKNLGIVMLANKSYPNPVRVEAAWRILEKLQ
In the next assay the target is ACC-1 (Hafnia alvei, UniProt Q9XB24). Description: IC50 of β-lactamase inhibitors, crude extract, ACC-1. The class given is biochemical.
Sequence of ACC-1 (Q9XB24 entry or part of it): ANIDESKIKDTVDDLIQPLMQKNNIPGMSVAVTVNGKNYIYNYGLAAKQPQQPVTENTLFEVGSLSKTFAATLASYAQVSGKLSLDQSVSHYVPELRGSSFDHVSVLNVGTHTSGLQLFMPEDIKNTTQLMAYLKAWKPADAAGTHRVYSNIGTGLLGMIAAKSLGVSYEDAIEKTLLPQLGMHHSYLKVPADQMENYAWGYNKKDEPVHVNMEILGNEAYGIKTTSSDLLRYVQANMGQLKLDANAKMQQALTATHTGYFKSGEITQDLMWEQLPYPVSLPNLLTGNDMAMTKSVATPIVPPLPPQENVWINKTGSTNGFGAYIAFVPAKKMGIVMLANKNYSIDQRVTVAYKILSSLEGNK
For a further assay, the target named is MOX-2 (Aeromonas caviae, UniProt Q9L3G2). As to the kind of experiment: IC50 of β-lactamase inhibitors, crude extract, MOX-2. The class given is biochemical.
Sequence of MOX-2 (Q9L3G2 entry or part of it): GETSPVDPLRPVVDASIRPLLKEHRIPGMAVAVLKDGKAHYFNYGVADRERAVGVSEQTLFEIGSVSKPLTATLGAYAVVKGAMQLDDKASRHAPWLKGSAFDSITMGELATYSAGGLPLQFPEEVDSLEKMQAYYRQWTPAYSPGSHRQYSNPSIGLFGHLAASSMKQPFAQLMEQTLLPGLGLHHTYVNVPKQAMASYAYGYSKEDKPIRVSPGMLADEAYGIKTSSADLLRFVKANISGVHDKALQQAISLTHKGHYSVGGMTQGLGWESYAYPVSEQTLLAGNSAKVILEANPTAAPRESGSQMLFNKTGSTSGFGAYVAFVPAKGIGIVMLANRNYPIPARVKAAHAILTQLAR
In a further assay the target is Ear-1 (Klebsiella aerogenes, UniProt A0A0H3FRQ3). As to the kind of experiment: IC50 of β-lactamase inhibitors, crude extract, Ear-1. Type of assay: biochemical.
Sequence of Ear-1 (A0A0H3FRQ3 entry or part of it): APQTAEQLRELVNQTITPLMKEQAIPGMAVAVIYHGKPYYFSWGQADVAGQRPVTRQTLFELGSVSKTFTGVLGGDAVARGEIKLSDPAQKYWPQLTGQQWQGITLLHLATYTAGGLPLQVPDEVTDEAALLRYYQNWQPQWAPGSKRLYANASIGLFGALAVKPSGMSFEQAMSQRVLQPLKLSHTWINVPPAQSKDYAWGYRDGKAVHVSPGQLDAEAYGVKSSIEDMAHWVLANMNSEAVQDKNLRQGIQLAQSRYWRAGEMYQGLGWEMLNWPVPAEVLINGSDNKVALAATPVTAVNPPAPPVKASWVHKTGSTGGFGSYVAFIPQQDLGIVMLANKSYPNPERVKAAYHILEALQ
For the next assay, the target named is FOX-5 (Aeromonas allosaccharophila, UniProt Q9F4K3). As to the kind of experiment: IC50 of β-lactamase inhibitors, crude extract, FOX-5. The class given is biochemical.
Sequence of FOX-5 (Q9F4K3 entry or part of it): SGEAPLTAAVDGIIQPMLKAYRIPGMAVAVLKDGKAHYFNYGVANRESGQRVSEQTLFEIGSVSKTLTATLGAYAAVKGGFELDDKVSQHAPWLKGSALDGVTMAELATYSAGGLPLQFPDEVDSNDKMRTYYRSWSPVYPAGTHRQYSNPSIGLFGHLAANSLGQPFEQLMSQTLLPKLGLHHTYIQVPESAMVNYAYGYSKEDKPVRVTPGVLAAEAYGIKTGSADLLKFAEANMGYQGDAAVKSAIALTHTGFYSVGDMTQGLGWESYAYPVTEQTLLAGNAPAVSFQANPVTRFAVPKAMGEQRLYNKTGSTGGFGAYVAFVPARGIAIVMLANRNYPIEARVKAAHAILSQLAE
In another assay the target is ADC-50 (Acinetobacter baumannii, UniProt Q6DRA1). As to the kind of experiment: IC50 of β-lactamase inhibitors, crude extract, ADC-50. The class given is biochemical, A. baumannii. Conditions: ADC-50, crude extract of E. coli TOP10 recombinant strain, mean of triplicate.
The target of the next assay is YRC-1 (Yersinia ruckeri, UniProt Q20I87). Description: IC50 of β-lactamase inhibitors, crude extract, YRC-1. Type of assay: biochemical.
For a further assay, the target named is PDC-382 (Pseudomonas aeruginosa, UniProt P24735, T96I). Description: biochemical. Also noted: species or system P. aeruginosa.
Sequence of PDC-382 (P24735 27-397 T96I): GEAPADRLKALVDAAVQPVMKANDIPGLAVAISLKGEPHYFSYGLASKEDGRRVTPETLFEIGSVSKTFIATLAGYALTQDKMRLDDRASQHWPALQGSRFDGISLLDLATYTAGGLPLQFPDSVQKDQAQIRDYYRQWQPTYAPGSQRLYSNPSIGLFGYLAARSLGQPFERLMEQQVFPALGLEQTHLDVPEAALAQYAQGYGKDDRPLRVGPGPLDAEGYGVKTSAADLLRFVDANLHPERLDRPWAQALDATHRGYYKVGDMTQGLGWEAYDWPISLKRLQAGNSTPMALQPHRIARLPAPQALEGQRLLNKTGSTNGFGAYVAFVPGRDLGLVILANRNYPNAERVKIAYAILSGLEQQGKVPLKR
The test system of a further assay is E. coli ATCC 25922. Description: MIC by broth microdilution, E. coli ATCC 25922. Type of assay: cell-based. Conditions: Escherichia coli. The procedure:
(§1) MICs were determined in triplicate by broth microdilution (BMD) for CAZ and AMX, as well as their combinations with each β-lactamase inhibitor. CAZ, AMX, and CLA were purchased from Sigma-Aldrich (St. Louis, MO, USA). All others inhibitors (TAZ HY-W009168, AVI HY-14879, REL HY-16752, VAB HY-19930, NAC HY-109008, ZID HY-120859, TAN HY-109124, XER HY-136072, DUR HY-117974, EMT HY-103095) were purchased from MedChem Express (Luzern, Switzerland). The concentration of each β-lactamase inhibitor was chosen as the concentration used in the respective BL/BLI combination under development or commercially available, according to EUCAST or CLSI ([18], [19]). […] BMD assays were performed in cation-adjusted Mueller-Hinton (MH) broth (Bio-Rad, Marnes-la-Coquette, France) for all antibiotics or antibiotic combinations listed above, according to the EUCAST guidelines ([20]).
In general terms: Dilution methods test growth across graded concentrations, often in twofold steps.

In assay [2] the test system is Klebsiella pneumoniae ATCC 700603 (SHV-18, OXA-2). Description: microbe, parasite or virus in culture. The class given is cell-based. Conditions: ATCC700603, read-out: Minimal Inhibitory Concentrations. As for the experimental part:
as §1
(§2) Table S1. Susc eptibility testing of al l QC strains used in the study.
(§3) Mi n ima l In hibitory Concentrations (µg / ml) a […]

Assay [3] concerns Pseudomonas aeruginosa ATCC 27853 (inducible AmpC). As to the kind of experiment: microbe, parasite or virus in culture. Conditions: ATCC27853, QC strain P. aeruginosa ATCC 27853, broth microdilution, Table S1, read-out: Minimal Inhibitory Concentrations. Type of assay: cell-based. The procedure: as §1, §2, §3
Assay [4] deals with Escherichia coli NCTC 13353 (CTX-M-15, OXA-1). As to the kind of experiment: QC susceptibility testing (MIC), E. coli NCTC 13353. The class given is cell-based. Conditions: NCTC13353, read-out: Minimal Inhibitory Concentrations. The procedure:
as §1, §2, §3

Assay [5] concerns E. coli ADC-50 (E. coli TOP10 recombinant strain). As to the kind of experiment: microbe, parasite or virus in culture. Conditions: Escherichia coli, read-out: MICs. The class given is cell-based, Escherichia coli. As for the experimental part:
(§4) In order to assess the relative inhibitory activities of those BLI against AmpC β-lactamases, the corresponding blaampC genes without the original promoter sequences were amplified by PCR with specific primers, and corresponding amplicons were cloned into plasmid pUCp24, as described previously ([12], [13]). […] Cultures of E. coli TOP10 harboring recombinant plasmids and therefore producing the different AmpC tested were grown overnight at 37°C in Luria-Bertani agar medium containing amoxicillin (AMX) (50 µg/mL). The activity of the following acquired class C β-lactamases could therefore be evaluated, namely, ACC-1 (originally from Hafnia spp.), FOX-5 (from Aeromonas allosaccharophila), CMY-2 and CMY-42 (from Citrobacter spp.), DHA-1 (from Morganella morganii), ACT-7 and ACT-17 (from Enterobacter asburiae), MIR-17 (from Enterobacter roggenkampii), MOX-2 (from Aeromonas caviae), and LAT-1 (from Citrobacter portucalensis) ([5]). […] Altogether, these enzymes were chosen as representatives of clinically relevant class C β-lactamases being sources of intrinsic or acquired resistance to broad-spectrum β-lactams among most of the commonly identified Gram-negative bacteria in clinical practice.
as §1

The test system of assay [6] is E. coli TOP10. As to the kind of experiment: microbe, parasite or virus in culture. Conditions: Escherichia coli; E. coli TOP10; broth microdilution; β-lactam alone or with inhibitor at fixed conc.: CLA 2 µg/mL; TZB, AVI, REL, NAC, ZID, DUR, TAN 4 µg/mL; VAB, XER, EMT 8 µg/mL; read-out: MICs. Type of assay: cell-based. The procedure: as §4, §1
Assay [7] deals with E. coli MIR-17 (E. coli TOP10 recombinant strain). As to the kind of experiment: microbe, parasite or virus in culture. Type of assay: cell-based. Conditions: Escherichia coli, read-out: MICs. The procedure: as §4, §1
Assay [8] concerns E. coli CMY-2 (E. coli TOP10 recombinant strain). As to the kind of experiment: microbe, parasite or virus in culture. Type of assay: cell-based. Conditions: Escherichia coli, read-out: MICs. As for the experimental part:
as §4, §1

For assay [9], the system named is E. coli FOX-5 (E. coli TOP10 recombinant strain). As to the kind of experiment: microbe, parasite or virus in culture. Type of assay: cell-based. Conditions: Escherichia coli, read-out: MICs. The procedure: as §4, §1
Assay [10] deals with E. coli SRT-2 (E. coli TOP10 recombinant strain). Description: microbe, parasite or virus in culture. Type of assay: cell-based. Conditions: Escherichia coli, read-out: MICs. As for the experimental part: as §4, §1
Assay [11] concerns E. coli ACT-7 (E. coli TOP10 recombinant strain). As to the kind of experiment: microbe, parasite or virus in culture. The class given is cell-based. Conditions: Escherichia coli, read-out: MICs. The procedure:
as §4, §1

Assay [12] deals with E. coli PDC-1 (E. coli TOP10 recombinant strain). Description: microbe, parasite or virus in culture. Conditions: Escherichia coli, read-out: MICs. Type of assay: cell-based. The procedure:
as §4, §1

Assay [13] deals with E. coli LAT-1 (E. coli TOP10 recombinant strain). Description: microbe, parasite or virus in culture. The class given is cell-based. Conditions: Escherichia coli, read-out: MICs. As for the experimental part:
as §4, §1

In assay [14] the test system is E. coli DHA-1 (E. coli TOP10 recombinant strain). As to the kind of experiment: microbe, parasite or virus in culture. Type of assay: cell-based. Conditions: Escherichia coli, read-out: MICs. As for the experimental part:
as §4, §1

Assay [15] relates to E. coli ACC-1 (E. coli TOP10 recombinant strain). As to the kind of experiment: microbe, parasite or virus in culture. Type of assay: cell-based. Conditions: Escherichia coli, read-out: MICs. As for the experimental part: as §4, §1
In assay [16] the test system is E. coli MOX-2 (E. coli TOP10 recombinant strain). Description: microbe, parasite or virus in culture. The class given is cell-based. Conditions: Escherichia coli, read-out: MICs. As for the experimental part: as §4, §1
Assay [17] relates to E. coli Ear-1 (E. coli TOP10 recombinant strain). Description: microbe, parasite or virus in culture. Type of assay: cell-based. Conditions: Escherichia coli, read-out: MICs. As for the experimental part: as §4, §1
Assay [18] deals with E. coli PDC-5 (E. coli TOP10 recombinant strain). As to the kind of experiment: microbe, parasite or virus in culture. The class given is cell-based. Conditions: Escherichia coli, read-out: MICs. The procedure:
as §4, §1

The subject of assay [19] is E. coli ACT-17 (E. coli TOP10 recombinant strain). Description: microbe, parasite or virus in culture. Type of assay: cell-based. Conditions: Escherichia coli, read-out: MICs. As for the experimental part:
as §4, §1

For assay [20], the system named is E. coli CMY-42 (E. coli TOP10 recombinant strain). Description: microbe, parasite or virus in culture. The class given is cell-based. Conditions: Escherichia coli, read-out: MICs. As for the experimental part:
as §4, §1

The subject of assay [21] is E. coli PDC-382 (E. coli TOP10 recombinant strain). As to the kind of experiment: microbe, parasite or virus in culture. The class given is cell-based. Conditions: Escherichia coli, read-out: MICs. As for the experimental part: as §4, §1
Assay [22] has as its system E. coli YRC-1 (E. coli TOP10 recombinant strain). As to the kind of experiment: microbe, parasite or virus in culture. The class given is cell-based. Conditions: Escherichia coli, read-out: MICs. As for the experimental part:
as §4, §1

Like-named read-outs stand apart in the source and are kept apart here.

Sequence of SRT-1 (P18539 22-376): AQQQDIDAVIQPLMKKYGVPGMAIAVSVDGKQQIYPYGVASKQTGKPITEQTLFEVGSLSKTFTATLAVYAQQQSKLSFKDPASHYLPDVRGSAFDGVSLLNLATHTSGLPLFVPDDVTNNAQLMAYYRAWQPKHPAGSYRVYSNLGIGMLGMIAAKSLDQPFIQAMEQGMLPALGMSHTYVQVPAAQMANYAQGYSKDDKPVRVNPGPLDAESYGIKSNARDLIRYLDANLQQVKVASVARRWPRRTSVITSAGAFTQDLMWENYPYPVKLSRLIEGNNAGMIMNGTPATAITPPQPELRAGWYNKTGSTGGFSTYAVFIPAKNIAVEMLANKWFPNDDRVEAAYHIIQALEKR
T4 sequence (Q48434 21-381): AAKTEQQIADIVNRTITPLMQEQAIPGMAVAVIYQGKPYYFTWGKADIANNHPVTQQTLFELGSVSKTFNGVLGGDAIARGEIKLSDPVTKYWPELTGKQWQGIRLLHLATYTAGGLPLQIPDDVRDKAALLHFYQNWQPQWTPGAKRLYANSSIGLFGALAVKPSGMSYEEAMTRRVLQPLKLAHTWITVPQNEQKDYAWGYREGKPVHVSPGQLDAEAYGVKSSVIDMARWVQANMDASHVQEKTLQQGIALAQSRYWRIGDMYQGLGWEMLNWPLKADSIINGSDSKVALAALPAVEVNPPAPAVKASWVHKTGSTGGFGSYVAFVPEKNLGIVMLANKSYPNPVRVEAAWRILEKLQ
T2 sequence (P24735 27-397 R79Q/T105A): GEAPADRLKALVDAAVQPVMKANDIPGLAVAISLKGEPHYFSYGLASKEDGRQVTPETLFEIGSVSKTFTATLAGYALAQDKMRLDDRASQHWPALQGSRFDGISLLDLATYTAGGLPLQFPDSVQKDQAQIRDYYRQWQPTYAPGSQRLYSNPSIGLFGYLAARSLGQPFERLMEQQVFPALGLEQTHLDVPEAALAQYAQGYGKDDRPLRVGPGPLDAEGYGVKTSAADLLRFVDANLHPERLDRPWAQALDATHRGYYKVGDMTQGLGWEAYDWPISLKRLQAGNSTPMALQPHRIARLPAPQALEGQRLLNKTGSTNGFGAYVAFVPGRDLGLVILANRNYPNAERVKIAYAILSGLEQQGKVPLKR
T1 sequence (P24735 27-397): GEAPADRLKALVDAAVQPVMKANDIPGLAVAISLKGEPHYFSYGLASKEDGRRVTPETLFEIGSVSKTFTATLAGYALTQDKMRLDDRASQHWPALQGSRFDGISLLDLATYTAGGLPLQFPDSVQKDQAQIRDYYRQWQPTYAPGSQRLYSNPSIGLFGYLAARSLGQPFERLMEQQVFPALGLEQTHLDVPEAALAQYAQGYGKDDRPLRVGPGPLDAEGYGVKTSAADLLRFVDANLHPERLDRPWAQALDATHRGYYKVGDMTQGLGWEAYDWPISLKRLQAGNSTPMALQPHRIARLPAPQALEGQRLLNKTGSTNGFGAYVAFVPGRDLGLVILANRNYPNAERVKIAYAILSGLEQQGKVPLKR
T3 sequence (Q48434 21-381 V231S): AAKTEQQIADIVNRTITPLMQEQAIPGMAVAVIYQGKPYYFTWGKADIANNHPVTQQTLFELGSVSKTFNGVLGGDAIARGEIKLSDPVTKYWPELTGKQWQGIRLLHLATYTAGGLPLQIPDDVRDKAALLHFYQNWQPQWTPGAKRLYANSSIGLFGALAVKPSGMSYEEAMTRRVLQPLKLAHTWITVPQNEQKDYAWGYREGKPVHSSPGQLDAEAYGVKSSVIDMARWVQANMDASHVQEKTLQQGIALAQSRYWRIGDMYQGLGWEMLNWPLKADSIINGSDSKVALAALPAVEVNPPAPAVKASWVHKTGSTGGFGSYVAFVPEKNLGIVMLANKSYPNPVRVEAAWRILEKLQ
Sequence of ACT-17 (P05364 21-381): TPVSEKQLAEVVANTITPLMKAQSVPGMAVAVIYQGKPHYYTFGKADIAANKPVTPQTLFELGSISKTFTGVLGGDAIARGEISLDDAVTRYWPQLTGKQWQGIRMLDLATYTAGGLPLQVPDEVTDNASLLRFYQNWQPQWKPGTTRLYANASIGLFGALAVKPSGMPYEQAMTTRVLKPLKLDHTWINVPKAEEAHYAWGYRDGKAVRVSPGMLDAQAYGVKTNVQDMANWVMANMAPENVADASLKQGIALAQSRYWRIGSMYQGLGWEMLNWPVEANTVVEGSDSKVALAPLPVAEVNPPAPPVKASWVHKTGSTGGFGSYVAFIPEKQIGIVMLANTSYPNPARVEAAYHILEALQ

`O=C(O)c1c(F)ccc2c1OB(O)[C@@H]1C[C@H]21` [Xeruborbactam, xeruborbactam]: the IC50 (usually the concentration that gives 50% inhibition) stood at 670 nM against PDC-1; 310 nM on MIR-17; 200 nM on ACT-17; 220 nM at SRT-1; 660 nM against PDC-5; 160 nM at DHA-1. Moreover, the IC50 at ACT-7 is 290 nM; at CMY-42 it was 430 nM; on CMY-2 it was 280 nM; on LAT-1, 340 nM; on ACC-1, 90 nM; against MOX-2 it was 260 nM. Also, the IC50 against Ear-1 worked out at 220 nM; at FOX-5, 230 nM; at ADC-50 it was 5.4 µM; on ADC-50 (listed as XER), 5 µM; at YRC-1, 960 nM; against PDC-382, 320 nM. Besides, the “MIC value of XER alone” value in the assay on E. coli TOP10 [1] was “above 16 µg/mL”.
As for `CC(C)(O/N=C(\C(=O)N[C@@H]1C(=O)N2C(C(=O)[O-])=C(C[n+]3ccccc3)CS[C@H]12)c1csc(N)n1)C(=O)O` [Ceftazidime, ceftazidime], the MIC in the assay with E. coli ATCC 25922 (ATCC25922, E. coli ATCC 25922, β-lactam alone or with inhibitor at fixed conc.: CLA 2 µg/mL, TZB, AVI, REL, NAC, ZID, DUR, TAN 4 µg/mL, VAB, XER, EMT 8 µg/mL, read-out: MICs) turned out to be 0.06 µg/mL; with E. coli ATCC 25922 (ATCC25922, QC strain E. coli ATCC 25922, Table S1, read-out: Minimal Inhibitory Concentrations), 0.06 µg/mL; in [2], 64 µg/mL; in assay [3], 2 µg/mL; in [4] it was 256 µg/mL; in assay [5] it was 64 µg/mL. Further, the MIC was 0.25 µg/mL with E. coli TOP10 [6]; 4 µg/mL in [7]; over 256 µg/mL in [8]; 8 µg/mL in [9]; 4 µg/mL in [10]; 64 µg/mL in [11]. In addition, the MIC in assay [12] was 0.5 µg/mL; in [13], 64 µg/mL; in [14] it was 128 µg/mL; in assay [15] it was 32 µg/mL; in assay [16], 0.5 µg/mL; in [17] it was over 256 µg/mL. Besides, the MIC in [18] was 1 µg/mL; in [19], 32 µg/mL; in [20] it was over 256 µg/mL; in [21], 2 µg/mL; in [22] it was 8 µg/mL.
